Where “and” joins values, the source holds several entries; their conditions need not be identical. Equal values may be shown once. Entries after “also recorded” stand apart in the source; their conditions may differ.
Tests used:
Assay type in all cases: cell-based, rat
c-jun = assay: Western blot of c-jun expression in LK-treated cerebellar granule neurons; conditions: 25 μM, 3 h
Description: (§1) Cerebellar neuron cultures were treated for 3 h with HK, LK, or LK medium containing 25 μM HSB-13, 25 μM ASK-2a, or 25 μM HSB-22. Whole cell lysates were then prepared and subjected to Western blot analysis using antibodies against c-jun and ATF-3.
(§2) The culture medium was removed and the cells were washed twice with ice-cold phosphate-buffered saline (PBS) and lysed in lysis buffer [1% Triton, 20 mM Tris-HCl (pH 7.5), 150 mM NaCl, 1 mM Na2EDTA, 1 mM EGTA, 2.5 mM sodium pyrophosphate, 1 mM beta-glycerophosphate, 1 mM Na3VO4, 1 μg/mL leupeptin and 1 protease inhibitor mixture]. Protein concentrations were measured and normalized using Bradford protein assay reagent (Bio-Rad, Hercules, Calif., USA). Following normalization, 40 μg of protein was subjected to Western blotting. Immunoreactivity was examined by enhanced chemiluminescence (Amersham Bioscience, Piscataway, N.J., USA).
(§3) C-jun expression is induced in a variety of tissue culture and in vivo paradigms of neuronal apoptosis (Schenkel et al., 2004). […] Treatment with HSB-13 inhibited c-jun expression even lower that that seen in HK-treated cultures. […] The suppression of ATF-3 expression using siRNA inhibits LK-mediated death of cerebellar granule neurons has been previously been described by the present inventors (Chen et al., 2008a). […] As observed with c-jun, the suppression was most robust with HSB-13. As a result these compositions can inhibit the activity of c-jun and ATF-3, which in turn play a role in treating cancer and oncoproteins like c-jun.

[1] = test system: cerebellar granule neurons; assay: LK-induced death of cultured cerebellar granule neurons, viability by DAPI staining; conditions: for protection against LK-induced neuronal death (FIG. 1): 25 μM, phase contrast microscopy, DAPI-staining, TUNEL-staining; for neuroprotection against LK-induced neuronal death, in words: overall over 1, 5 and 25 μM
Description: Culturing and treatments of cerebellar granule neurons: Granule neuron cultures were obtained from dissociated cerebella of 6-7 day old Wistar rats as described previously (D'Mello et al., 1993). Cells were plated in Basal Eagle's Medium (BME) supplemented with 10% fetal calf serum (FCS), 25 mM KCl, 2 mM glutamine (Invitrogen), and 100 μg/ml gentamycin in poly-L-lysine coated 24-well dishes at a density 1×10^6 cells/well. Cytosine arabinofuranoside (10 μM) was added to the culture medium 18-22 h after plating to prevent replication of nonneuronal cells. Previous immunocytochemical analyses by our lab and other investigators have shown that these cultures have high purity containing over 95% granule neurons (Thangnipon et al., 2003; Kingsbury et al., 2005).
The neuronal cultures were maintained for 7-8 days prior to treatment. For treatment, the cells were rinsed once and then maintained in low K+ medium (serum-free BME medium; referred to as LK), or in the case of control cultures, in high K+ medium (serum-free BME medium supplemented with 20 mM KCl; referred to as HK). For treatments, the chemical compounds (dissolved in dimethylsulfoxide) were added directly to LK medium at the time of the switch from HK at concentrations of 1, 5, or 25 μM. Viability was assessed 24 hours by 4′,6′-diamidino-2-phenylindole hydrochloride (DAPI) staining (see below). Each compound was tested in duplicate (at each of the concentrations) and the experiment repeated at least 3 times.
The viability status of neuronal cultures treated with HK, LK, or LK medium supplemented with various compounds was evaluated by phase contrast microscopy and quantified by staining cell nuclei with DAPI as previously described (Yalcin et al., 2003; Morrison et al., 2006; Majzadeh et al., 2007)). Briefly, the cells were fixed in 4% paraformaldehyde for 20 min at 4° C. After washing in phosphate buffered saline, diamidino-2-phenylindole hydrochloride (DAPI; 1 μg/ml in phosphate buffered saline) was added for 15 min at room-temperature and viewed under ultraviolet light (260 nm). Cells with condensed or fragmented nuclei were scored as dead. Viability has been expressed as percent of control cultures, which were switched to HK medium). Statistical analysis was performed using an unpaired, two-tailed Student's T test, compared to mean neuronal survival of control cultures receiving LK treatment.
When cultured cerebellar granule neurons are switched from HK to LK medium about 50% of the cells underwent apoptosis within 24 h (D'Mello et al., 1993). The inventors utilized this widely used and recognized model to test a total of 20 different 1,4-benzoxazine derivatives for their ability to protect against LK-induced neuronal death. Each compound was tested at 3 different doses—1 μM, 5 μM and 25 μM and viability quantified by DAPI-staining. The highest does was included to test for possible toxicity effects of the compounds. Key results were confirmed using TUNEL staining, another reliable assay of apoptosis (FIG. 1). As shown in Table 1 and FIG. 1, the present invention identifies several compounds with significant neuroprotective effect. Two of the most protective compounds are HSB-13 and HSB-22, both with Ar=3′,5′-dibromo-4′-hydroxyphenyl (FIG. 1). […] Protection with this compound is lower than that observed with HSB-13 and HSB-22 at the two lower doses. […] To examine whether a higher level of protection could be observed at doses lower than 1 μM, the analyses of these compounds was extended to doses of 0.5, 0.25, and 0.1 μM.
When cultured cerebellar granule neurons are switched to LK medium, about 50% of the cells undergo apoptosis within 24 h. In this study, a total of 20 different 1,4-benzoxazine derivatives of the structure shown in FIG. 1 were tested for their ability to protect against LK-induced death of cerebellar granule neurons. Each compound was tested at 3 different doses —1 μM, 5 μM and 25 μM. […]

ATF-3 = assay: Western blot of ATF-3 expression in LK-treated cerebellar granule neurons; conditions: 25 μM, 3 h
Description: as §1, §2, §3

[2] = Table 1, 5 μM in LK medium, 24 h, % of survival in control cultures in HK medium, LK alone 48%
[3] = Table 1, 25 μM in LK medium, 24 h, % of survival in control cultures in HK medium, LK alone 48%
[4] = Table 4, 1 μM in LK medium, % of survival in HK control cultures, LK alone 48.16±8.44%
[5] = Table 4, 5 μM in LK medium, % of survival in HK control cultures, LK alone 48.16±8.44%
[6] = Table 4, 25 μM in LK medium, % of survival in HK control cultures, LK alone 48.16±8.44%

Compound | induction of c-jun expression by LK (c-jun) | protection against LK-induced neuronal death (FIG. 1) ([1]; 24 h) | % Survival ([1]; Table 1, 1 μM in LK medium, 24 h, % of survival in control cultures in HK medium, LK alone 48%) [%] | % Survival [1, 2] [%] | % Survival [1, 3] [%] | neuroprotection against LK-induced neuronal death, in words [1] | LK-mediated increase in ATF-3 (ATF-3) | % Survival [1, 4] | % Survival [1, 5] | % Survival [1, 6]
O=C1Nc2ccccc2OC1=Cc1cc(Br)c(O)c(Br)c1 [ASK-2a] | inhibited | protective | 74.01 ± 6.93 | 80.84 ± 9.31 | 95.12 ± 3.28 | much higher neuroprotection than ASK2; also recorded: high level of neuroprotection; also recorded: effective in all the three concentrations | inhibited |  |  | 
O=C1Nc2cc(Cl)ccc2O/C1=C\c1cc(Br)c(O)c(Br)c1 [HSB-22] | inhibited | protective |  | 87.54 ± 8.83 | 91.24 ± 9.03 | effective in all the three concentrations | inhibited | 92% and 91.9 ± 1.98 % | 97% and 96.7 ± 2.96 % | 90.6% and 90.6 ± 0.84 %
Nc1ccc2c(c1)NC(=O)/C(=C/c1cc(Br)c(O)c(Br)c1)O2 [HSB-13, (Z)-6-amino-2-(3,′5′-dibromo-4′-hydrozybenzylidene)-2H-benzo[b][1,4]oxazin-3(4H)-one] | inhibited | protective |  | 100.2 ± 2.25 | 95.1 ± 5.06 | highest neuroprotection; also recorded: effective in all the three concentrations | inhibited | 83.1 ± 4.53 % | 100.8% and 100.8 ± 0.07 % | 99.5% and 99.5 ± 1.56 %

— patent US8680094B2, “1, 4-benzoxazine compounds and derivatives thereof as therapeutic drugs for the treatment of neurodegenerative conditions” (Board of Regents, The University of Texas System, priority 2008, dated 2014)
